Assay results: patent US20240041830A1, “CIRCULATING BIOMARKERS OF RESPONSE TO PD-1/PD-L1 BLOCKADE AND GSK-3 INHIBITION” (Brown University, priority 2022, published 2024)

Assays:
NK-92 = assay: Luminex cytokine profiling of cell culture supernatant; format: cell-based, human
Experimental: (§1) Collection of cell culture supernatants used in cytokine measurements. Cells were plated at 3.5×10^4 cells in a 48-well plate (Thermo Fisher Scientific, Waltham, MA, USA) in complete medium and incubated at 37° C. with 5% CO2. At twenty-four hours after plating, almost all the tumor cells were adherent to the bottom of the flask and the complete medium was replaced with the drug-containing medium. Subsequently, the culture supernatants were collected after forty-eight hours of incubation and were frozen at −80° C. until the measurement of cytokines was performed. On the day of analysis, samples were thawed and centrifuged to remove cellular debris.
(§2) Human cytokine profiling. Human cell line culture supernatants were analyzed using an R&D systems Human Premixed Multi-Analyte Kit (R&D Systems, Inc., Minneapolis, MN, USA) and a Luminex 200 (RRID: SCR_018025) Instrument (LX200-XPON-RUO, Luminex Corporation, Austin, TX, USA) according to the manufacturer's instructions. Sample levels of TNF-α, 4-1BB/TNFRSF9/CD137, IL-8/CXCL8, Ferritin, IFN-β, IL-10, CCL2/JE/MCP-1, VEGF, CXCL13/BLC/BCA-1, IFN-γ, CCL20/MIP-3 α, CCL3/MIP-1 α, CCL22/MDC, CCL4/MIP-1 β, Fas Ligand/TNFSF6, IL-17/1L-17A, IL-2, BAFF/BLyS/TNFSF13B, GM-CSF, CXCLS/ENA-78, TRANCE/TNFSF11/RANK L, CXCL9/MIG, G-CSF, IFN-γ R1/CD119, VEGFR3/Flt-4, C-Reactive Protein/CRP, CXCL11/I-TAC, IL-21, CXCL14/BRAK, IL-6, Fas/TNFRSF6/CD95, TRAIL R3/TNFRSF10C, IL-4, CCL5/RANTES, PD-L1/137-H1, CCL7/MCP-3/MARC, Chitinase 3-like 1, CXCL10/IP-10/CRG-2, IL-1 μ/IL-1F2, IL-7, Prolactin, CCL8/MCP-2, TRAIL R2/TNFRSF10B, M-CSF, IL-15, Granzyme B, IFN-α, TREM-1, IL-12/1L-23 p40, TRAIL/TNFSF10, CCL11/Eotaxin, and 1L-18/1L-1F4. Quantitative analysis with 6 standards and a minimum of 50 counts per bead region was used with the Luminex to generate analyte values reported as picograms/milliliter (pg/mL). Sample concentrations less than the lower limit of detection for each particular analyte were recoded as the lower limit value divided by 10. Sample concentrations above the upper limit of detection for a particular analyte were recoded as the upper limit of detection.
(§3) Saos-2 osteosarcoma and 93T449 liposarcoma cell lines were pretreated at IC50 with elraglusib. The cells were harvested for Western blot analysis after 48 hours of treatment. Both cancer cell lines as well as TALL-104 T-cells and NK-92 NK cells were treated with 0.5 μM elraglusib for twenty-four hours and harvested for Luminex cytokine profiling.
(§4) Because the previously observed non-canonical NF-κB pathway activation enhances the expression of immune cell chemotactic chemokines and cytokines, the inventors determine how elraglusib treatment impacts the immune cell secretome. TALL-104 and NK-92 cells were treated with 1 μM elraglusib for forty-eight hours before cell culture supernatant was collected for cytokine profile analysis.

TALL-104 = assay: as above; format: cell-based, human
Experimental: as §1, §2, §3, §4

Cn1cc(C2=C(c3coc4ccc(F)cc34)C(=O)NC2=O)c2cc3c(cc21)OCO3 [elraglusib]
IL-8 chemokine (NK-92; 0.5 μM, twenty-four hours): increase | soluble TRAIL (TRAIL/TNFSF10) (NK-92; 0.5 μM, twenty-four hours): increase | IFN-γ concentration (NK-92; 1 μM, forty-eight hours): increases | TRAIL concentration (NK-92; 1 μM, forty-eight hours): increases | secreted granzyme B concentration (NK-92; 1 μM, forty-eight hours): decreases | IFN-γ in cell culture supernatants (NK-92; twenty-four hours, effect smaller than in TALL-104): significant increase | CXCL11 (TALL-104; 0.5 μM, twenty-four hours): increase | IL-18 (TALL-104; 0.5 μM, twenty-four hours): increased level | IFN-γ concentration (TALL-104; 1 μM, forty-eight hours): increases | TRAIL concentration (TALL-104; 1 μM, forty-eight hours): increases | granzyme B concentration (TALL-104; 1 μM, forty-eight hours): increases | IFN-γ in cell culture supernatants (TALL-104; twenty-four hours): significant increase
